Source: US20140094413A1, “HEPATOCYTE GROWTH FACTOR (HGF) MIMICS AS THERAPEUTIC AGENTS” (WASHINGTON STATE UNIVERSITY, priority 2012, published 2014)
“And” between values parts separate entries of the source, which are not always exact repeats. Equal values may be shown once. “Also recorded” adds a separate entry of the source. Read-outs that look alike come from different tables or passages of the source. Where a SMILES comes first, the peptide text is derived from it. [ ]: non-standard residue; d: D form. dNle = CCCC[C@@H](N)C(=O)O; Ahx = NCCCCCC(=O)O

Columns and labels:
[1] = biological target: T1, human HGF (Homo sapiens, UniProt P14210); test: HGF binding, competition with 3H-Hinge; conditions: 1.25 ng HGF, 40 min at 37° C.; N=9
T1 construct: purchased R&D Systems (Minneapolis, Minn.)
T1 sequence (P14210 32-728): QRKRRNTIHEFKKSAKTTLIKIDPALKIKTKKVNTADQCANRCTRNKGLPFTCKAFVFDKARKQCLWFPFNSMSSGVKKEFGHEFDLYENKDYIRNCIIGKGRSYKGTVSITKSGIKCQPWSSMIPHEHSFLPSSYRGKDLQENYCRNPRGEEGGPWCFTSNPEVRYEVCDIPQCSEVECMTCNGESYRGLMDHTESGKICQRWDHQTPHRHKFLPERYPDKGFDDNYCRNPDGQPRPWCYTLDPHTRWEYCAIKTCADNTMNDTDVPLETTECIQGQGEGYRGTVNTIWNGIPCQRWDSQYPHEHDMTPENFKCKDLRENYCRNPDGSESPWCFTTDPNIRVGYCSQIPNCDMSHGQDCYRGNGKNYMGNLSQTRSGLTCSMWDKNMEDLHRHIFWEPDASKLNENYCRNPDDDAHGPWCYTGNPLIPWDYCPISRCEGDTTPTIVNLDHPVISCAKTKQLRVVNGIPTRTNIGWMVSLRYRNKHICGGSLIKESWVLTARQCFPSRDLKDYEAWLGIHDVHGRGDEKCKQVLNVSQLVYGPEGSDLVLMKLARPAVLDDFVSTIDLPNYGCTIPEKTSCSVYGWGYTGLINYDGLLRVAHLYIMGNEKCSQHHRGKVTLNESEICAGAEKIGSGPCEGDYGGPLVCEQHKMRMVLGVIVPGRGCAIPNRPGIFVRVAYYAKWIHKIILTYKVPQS
Description: The binding of 6-AH analogs to HGF was assessed by competition using a soluble binding assay. 250 μl of PBS containing human HGF (1.25 ng) were incubated with ^3H-Hinge, the central dimerization domain of HGF, in the presence of varying concentrations of 6-AH analogs between 10^−13 M to 10^−7M (half-log dilutions) for 40 min at 37° C. The incubates were then spun through Bio-Gel P6 spin columns (400 μl packed volume) for 1 min to separate free and bound ^3H-Hinge and the eluent was collected. Five milliliters of scintillation fluid was added to the eluent, which contained the HGF bound ^3H-Hinge, and was then counted using scintillation counter. Total disintegrations per minute of bound ^3H-Hinge were calculated based on machine counting efficiency. The Ki values for the binding of the peptides were determined using the Prism 5. Competition binding curves were performed in triplicate.

[2] = Blood stability studies; conditions: heparinized rat blood, 37° C.; single phase exponential decay
Description: (§1) At the end of each incubation, 20 μL of Nle^1-AngIV (100 μg/mL) was added to each sample as an internal standard. […] All samples were centrifuged at 4° C., 2300×g for 5 min and the supernatants were transferred to clean tubes.
(§2) Samples were then separated by HPLC on an Econosphere C18 (100 mm×2.1 mm) from Grace Davison Discovery Science (Deerfield, Ill.). […] The mobile phase consisted of HPLC water (Sigma St. Louis, Mo.) with 0.1% trifluoroacetic or 0.1% heptafluorobutyric acid (Sigma St. Louis, Mo.) and varying concentrations of ACN or methanol. Separation was carried out using a gradient method, at ambient temperature and a flow rate of 0.3 mL/min (see below for more information). Stability half-lives were determined assuming a normal single phase exponential decay using Prism 5 graphical/statistical program (GraphPad, San Diego, Calif.).

[3] = Microsomal metabolism; format: in vitro ADME, rat; conditions: over 90 min; data not shown
[4] = rat
Description: Male Sprague-Dawley rats (250+ g) were allowed food (Harlan Teklad rodent diet) and water ad libitum in our AAALAC certified animal facility. Rats were housed in temperature-controlled rooms with a 12 h light/dark cycle. The right jugular veins of the rats were catheterized with sterile polyurethane Hydrocoat™ catheters (Access Technologies, Skokie, Ill., USA) under ketamine (Fort Dodge Animal Health, Fort Dodge, Iowa, USA) and isoflurane (Vet One™, MWI, Meridian, Id., USA) anesthesia. The catheters were exteriorized through the dorsal skin. The catheters were flushed with heparinized saline before and after blood sample collection and filled with heparin-glycerol locking solution (6 mL glycerol, 3 mL saline, 0.5 mL gentamycin (100 mg/mL), 0.5 mL heparin (10,000 u/mL)) when not used for more than 8 h. The animals were allowed to recover from surgery for several days before use in any experiment, and were fasted overnight prior to the pharmacokinetic experiment.
Catheterized rats were placed in metabolic cages prior to the start of the study and time zero blood samples were collected. […] After dosing, blood samples were collected as follows (times and blood volumes collected are listed in chronological order):
After each blood sample was taken, the catheter was flushed with saline solution and a volume of saline equal to the volume of blood taken was injected (to maintain total blood volume).
Upon collection into polypropylene microfuge tubes without heparin, blood samples were immediately centrifuged at 4° C., 2300×g for 5 min to remove any cells and clots and the serum transferred into clean microcentrifuge tubes. A volume of internal standard (Nle^1-AngIV, 100 μg/mL) equal to 0.1 times the sample serum volume was added. A volume of ice-cold acetonitrile equal to four times the sample serum volume was then added and the sample vortexed vigorously for 30 s. The supernatants were transferred to clean tubes, then held on ice until the end of the experiment, and stored at 4° C. afterward until further processing.
All samples were evaporated to dryness in a Savant SpeedVac® concentrator. […] The samples were then transferred to HPLC autosampler vials and 100 μl was injected into the HPLC system a total of 2 times (2 HPLC/MS analyses) for each sample.
Data collection and integration were achieved using Shimadzu LCMS solution software. The analytical column used was an Econosphere C18 (100 mm×2.1 mm) from Grace Davison Discovery Science (Deerfield, Ill., USA). The mobile phase consisted of HPLC grade methanol and water with 0.1% trifluoroacetic acid. Separation was carried out using a non-isocratic method (40%-50% methanol over 10 min) at ambient temperature and a flow rate of 0.3 mL/min. […] Data were normalized based on the recovery of the internal standard.
Pharmacokinetic analysis was performed using data from individual rats. The mean and standard deviation (SD) were calculated for the group.

[5] = system: MDCK cells; test: Inhibition of HGF-dependent scattering in MDCK cells; format: cell-based, canine; conditions: HGF 20 ng/ml, 48 h
Description: MDCK cells were grown to 100% confluency on the coverslips in six-well plates and washed twice with PBS. The confluent coverslips were then aseptically transferred to new six well plates containing 900 μl serum free DMEM. Norleual, Hinge peptide, and/or HGF (20 ng/ml) were added to appropriate wells. Control wells received PBS vehicle. Plates were incubated at 37° C. with 5% CO2 for 48 h. Media was removed and cells were fixed with methanol. Cells were stained with Diff-Quik Wright-Giemsa (Dade-Behring, Newark, Del.) and digital images were taken. Coverslips were removed with forceps and more digital images were captured. Pixel quantification of images was achieved using Image J and statistics were performed using Prism 5 and InStat v.3.05 (GraphPad; San Diego, Calif.).

[6] = system: Met; test: Inhibition of HGF-dependent Met phosphorylation in HEK293 cells; format: cell-based, human; conditions: 10 min with HGF+/− analog
Description: HEK293 cells were seeded in 6 well tissue culture plates and grown to 95% confluency in DMEM containing 10% FBS. The cells were serum deprived for 24 h prior to the treatment to reduce the basal levels of phospho-Met. Following serum starvation, cocktails comprised of vehicle and HGF with/without 6-AH analogs were prepared and pre-incubated for 30 min at room temperature. The cocktail was then added to the cells for 10 min to stimulate the Met receptor and downstream proteins. Cells were harvested using RIPA lysis buffer (Millipore; Billerica, Mass.) fortified with phosphatase inhibitor cocktails 1 and 2 (Sigma-Aldrich; St. Louis, Mo.). The lysate was clarified by centrifugation at 15,000 nx g for 15 min, protein concentrations were determined using the BCA total protein assay (Pierce), and then appropriate volumes of the lysates were diluted with 2× reducing Laemmli buffer and heated for ten min at 95° C. Samples containing identical amounts of protein were resolved using SDS-PAGE (Criterion, BioRad Laboratories), transferred to nitrocellulose, and blocked in Tris-buffered saline (TBS) containing 5% milk for 1 h at room temperature. The phospho-Met antibody were added to the blocking buffer at a final concentration of 1:1000 and incubated at 4° C. overnight with gentle agitation. The membranes were then washed several times with water and TBS ([…], 0.05% Tween-20), a 1:5000 dilution of horseradish-peroxidase conjugated goat anti-rabbit antiserum was added, and the membranes further incubated for 1 h at room temperature. Proteins were visualized using the Supersignal West Pico Chemiluminescent Substrate system (Pierce, Fenton, Mo.) and molecular weights determined by comparison to protein ladders (BenchMark, Invitrogen, and Kaleidoscope, BioRad). Film images were digitized and analyzed using a UVP phosphoimager.

[7] = system: MDCK cells; test: HGF-dependent MDCK cell proliferation (MTT); format: cell-based, canine; conditions: analogs at 10^−10M, HGF 10 ng/ml, 4 days
Description: 5000 MDCK cells were seeded into the wells of a 96 well plates in 10% FBS DMEM. To induce cellular quiescence, the cells were serum deprived for 24 h prior to initiating the treatments. Following serum starvation, 10 ng/ml HGF alone and with various concentrations of 6-AH analogs or PBS vehicle were added to the media. The cells were allowed to grow under these conditions for 4 days with a daily addition of 6-AH analogs. On the fourth day, 1 mg/ml of […] (MTT, Sigma-Aldrich) prepared in PBS was added to the cells and incubated for 4 h. Dimethyl sulfoxide diluted in a 0.01M glycine buffer was added to solubilize the cell membranes and the absorbance of reduced MTT in the buffer was quantitated at 590 nm using a plate reader (Biotek Synergy 2, Winooski, Vt.). HGF-dependent proliferation was determined by subtracting the basal proliferation (in the absence of HGF) from total proliferation rates in groups containing HGF.

[8] = biological target: T1, human HGF; test: HGF dimerization; format: biochemical; conditions: analogs at 10^−10 M, heparin, 30 minute incubation
Description: HGF dimerization was assessed using PAGE followed by silver staining (Kawas et al., 2011). Human HGF at a concentration of 0.08 ng/μl with or without 6-AH analogs was incubated with heparin at a final concentration of 5 μg/ml. Loading buffer was then added to each sample and the mixture separated by native PAGE using gradient Criterion XT precast gels (4-12% Bis-Tris; Biorad Laboratories, Hercules, Calif.). Next the gel was silver stained for the detection of the HGF monomers and dimers. Bands were quantitated from digital images using a UVP phosphoimager (Upland, Calif.).

[9] = system: B16-F10 murine melanoma cells; test: B16-F10 melanoma lung colony formation; format: in vivo, mouse; conditions: C57BL/6 mice, daily IP 10 μg/kg/day or 100 μg/kg/day, 14 days
Description: Six to eight month old C57BL/6 mice were injected with 400,000 B16-F10 cells in 200 μl PBS by tail vein injection and subsequently received daily intraperitoneal injections of either D-Nle-X-Cys-NH—(CH2)5—CONH2 ([…]) or a PBS vehicle control. Two weeks later, mice were anesthetized and lungs were perfused with PBS and removed. Photos were taken and lungs were solubilized in 1% Triton x-100, 20 mM Tris, 0.15 M NaCl, 2 mM EDTA, and 0.02% sodium azide. Samples were disrupted by sonication (Mixonix, Farmingdale, N.Y.) and spun. The supernatant was transferred to a 96 well plate and melanin absorbance at 410 nm was measured using a plate reader.

[10] = rat; remark: listed apart in the source
Description: as §1, §2

CCCC[C@@H](N)C(=O)N[C@@H](Cc1ccc(O)cc1)C(=O)N[C@H](C(=O)NCCCCCC(N)=O)[C@@H](C)CC (H-[dNle]YI[Ahx]-NH2)
Ki [1]: 0.243 nM
Stability t1/2 in blood [2]: 1.33 h and 1.333 h
Phase I metabolism in rat liver microsomes [3]: no detectable metabolism
Total recovery from serum ([4]; in vivo): greater than 35%
AUC(0-inf) ([4]; in vivo, iv, 24 mg/kg): 11.5 µg·h/mL
C0 ([4]; in vivo, iv, 24 mg/kg): 68.2 ± 32.2 µg/mL
KE (rate of elimination) ([4]; in vivo, iv, 24 mg/kg): 0.001 ± 0.0002 min − 1
Vd ([4]; in vivo, iv, 24 mg/kg): 104 ± 65 L/kg
clearance ([4]; in vivo, iv, 24 mg/kg): 3.5 ± 0.936 L/h/kg
t1/2 (in vivo elimination half-life) ([4]; iv, 24 mg/kg): 16.87 h
Inhibition of HGF-dependent MDCK cell scattering [5]: different from the HGF alone group but not different from the control group
Inhibition of HGF-dependent Met phosphorylation [6]: able to block Met auto-phosphorylation
Inhibition of HGF-dependent MDCK cell proliferation [7]: marked inhibitory activity
Inhibition of HGF dimerization [8]: completely block HGF dimer formation
Inhibition of HGF dimerization ([8]; listed as Tyr): statistically different than the HGF treated group

CCCC[C@@H](N)C(=O)N[C@@H](CS)C(=O)N[C@H](C(=O)NCCCCCC(N)=O)[C@@H](C)CC [D-Nle-Cys-Ile-NH—(CH2)5—CONH2] (H-[dNle]CI[Ahx]-NH2)
Ki [1]: 0.133 nM
Inhibition of HGF-dependent MDCK cell scattering [5]: different from the HGF alone group but not different from the control group
Inhibition of B16-F10 melanoma lung colonization [9]: suppressed pulmonary colonization; also recorded: radically prevented lung colonization
Inhibition of B16-F10 melanoma lung colonization ([9]; listed as D-Nle-Cys-Ile-(6)-amino-hexanoic amide): obvious reduction in melanoma colonies
Inhibition of HGF-dependent Met phosphorylation [6]: able to block Met auto-phosphorylation
Inhibition of HGF-dependent MDCK cell proliferation [7]: marked inhibitory activity
Inhibition of HGF dimerization [8]: completely block HGF dimer formation
Inhibition of HGF dimerization ([8]; listed as Cys): statistically different than the HGF treated group

CCCC[C@H](N)C(=O)N[C@@H](Cc1ccc(O)cc1)C(=O)N[C@H](CN[C@@H](Cc1c[nH]cn1)C(=O)N1CCC[C@H]1C(=O)N[C@@H](Cc1ccccc1)C(=O)O)CC(C)C [Norleual, Nle-Tyr-Leu-Ψ-(CH2—NH2)^3-4-His-Pro-Phe]
Stability t1/2 in blood [10]: 4.6 min
